Assay results taken from patent US5352591A, “Aldolase enzyme process for making 5-azido-5-deoxy-hexulose-1-phosphate” (The Scripps Research Institute, priority 1993, dated 1994).
“Also recorded” adds a separate entry of the source. Where two headings read alike, the source gives them in different places.

Experiments:
[1] = target: β-Glucosidase (almond); experiment: Inhibition of β-glucosidase; type: biochemical; settings: pH 6.5
Protocol: The following solutions were prepared for enzymatic assay: 1. […] The assay enzyme solution was prepared by dissolving 20 milligrams of solid protein (4.8 Units/milligram solid) in 6 mL PIPES-NaOAc buffer solution. […] The following illustrates the procedure in detail.

[2] = target: T1, α-Glucosidase (brewer yeast) (Saccharomyces cerevisiae, UniProt P53341); experiment: Inhibition of α-glucosidase (Lineweaver-Burk, p-nitrophenol release); type: biochemical; settings: pH 6.5
T1 construct: purchased Sigma
T1 sequence (P53341 whole entry): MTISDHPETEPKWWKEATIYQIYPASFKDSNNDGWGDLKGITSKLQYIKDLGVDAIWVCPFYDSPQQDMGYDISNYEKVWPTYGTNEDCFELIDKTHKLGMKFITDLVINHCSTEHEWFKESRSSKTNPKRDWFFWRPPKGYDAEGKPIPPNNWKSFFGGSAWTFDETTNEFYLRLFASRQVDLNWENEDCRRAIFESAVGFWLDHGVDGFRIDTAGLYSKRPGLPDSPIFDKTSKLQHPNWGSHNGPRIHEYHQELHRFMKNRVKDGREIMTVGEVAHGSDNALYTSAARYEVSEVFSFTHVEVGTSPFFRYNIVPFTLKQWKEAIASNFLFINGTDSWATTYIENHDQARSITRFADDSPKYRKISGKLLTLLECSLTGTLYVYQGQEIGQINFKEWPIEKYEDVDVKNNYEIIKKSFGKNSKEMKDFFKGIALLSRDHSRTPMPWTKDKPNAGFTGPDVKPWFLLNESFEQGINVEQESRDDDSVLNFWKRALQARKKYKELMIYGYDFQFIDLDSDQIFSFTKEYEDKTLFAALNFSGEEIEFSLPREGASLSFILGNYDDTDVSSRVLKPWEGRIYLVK
Protocol: The following solutions were prepared for enzymatic assay: 1. […] The following illustrates the procedure in detail.

[3] = target: T2, α-Mannosidase (jack bean) (Canavalia ensiformis, UniProt C0HJB3); experiment: Inhibition of α-mannosidase; type: biochemical
T2 construct: purchased Sigma
T2 sequence (C0HJB3 1-562 limits assumed): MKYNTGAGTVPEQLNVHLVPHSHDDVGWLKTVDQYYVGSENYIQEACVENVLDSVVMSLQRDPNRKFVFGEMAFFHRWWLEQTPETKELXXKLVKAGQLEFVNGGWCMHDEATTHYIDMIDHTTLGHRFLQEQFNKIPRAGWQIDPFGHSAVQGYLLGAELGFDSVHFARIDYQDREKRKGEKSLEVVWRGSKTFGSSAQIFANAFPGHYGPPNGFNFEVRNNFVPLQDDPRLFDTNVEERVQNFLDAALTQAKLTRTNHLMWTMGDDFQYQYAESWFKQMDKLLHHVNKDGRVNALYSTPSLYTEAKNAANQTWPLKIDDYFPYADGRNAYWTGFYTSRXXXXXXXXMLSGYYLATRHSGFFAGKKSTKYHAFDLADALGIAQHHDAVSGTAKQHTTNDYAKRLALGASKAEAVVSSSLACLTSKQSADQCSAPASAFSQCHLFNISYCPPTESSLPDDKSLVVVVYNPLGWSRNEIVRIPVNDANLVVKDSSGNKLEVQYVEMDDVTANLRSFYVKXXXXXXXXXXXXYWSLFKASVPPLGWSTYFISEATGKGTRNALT
T2 sequence (C0HJB3 563-981 limits assumed): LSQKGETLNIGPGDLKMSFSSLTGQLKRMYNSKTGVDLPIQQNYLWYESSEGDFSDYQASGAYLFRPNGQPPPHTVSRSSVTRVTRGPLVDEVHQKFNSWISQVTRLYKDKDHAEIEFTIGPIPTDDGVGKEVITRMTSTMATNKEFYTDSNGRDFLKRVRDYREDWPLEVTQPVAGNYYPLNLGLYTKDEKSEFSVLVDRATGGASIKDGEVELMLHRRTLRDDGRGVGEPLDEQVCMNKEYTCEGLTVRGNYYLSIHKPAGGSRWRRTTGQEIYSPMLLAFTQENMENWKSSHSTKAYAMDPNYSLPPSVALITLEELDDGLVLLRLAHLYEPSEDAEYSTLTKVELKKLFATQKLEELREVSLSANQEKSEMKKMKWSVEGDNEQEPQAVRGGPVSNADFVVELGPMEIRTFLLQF
Protocol: (§1) The following solutions were prepared for enzymatic assay:
4. α-D-Mannosidase: 5 milligrams of solid protein were suspended in I mL of 3M ammonium sulfate [(NH4)2 SO4 ] and 0.1M zinc acetate (ZnOAc).
(§2) The following illustrates the procedure in detail.

[4] = target: T3, β-Galactosidase (E. coli) (Escherichia coli, UniProt P00722); experiment: Inhibition of β-galactosidase; type: biochemical; settings: at 1 mM; pH 6.5
T3 construct: purchased Sigma
T3 sequence (P00722 2-1024 limits assumed): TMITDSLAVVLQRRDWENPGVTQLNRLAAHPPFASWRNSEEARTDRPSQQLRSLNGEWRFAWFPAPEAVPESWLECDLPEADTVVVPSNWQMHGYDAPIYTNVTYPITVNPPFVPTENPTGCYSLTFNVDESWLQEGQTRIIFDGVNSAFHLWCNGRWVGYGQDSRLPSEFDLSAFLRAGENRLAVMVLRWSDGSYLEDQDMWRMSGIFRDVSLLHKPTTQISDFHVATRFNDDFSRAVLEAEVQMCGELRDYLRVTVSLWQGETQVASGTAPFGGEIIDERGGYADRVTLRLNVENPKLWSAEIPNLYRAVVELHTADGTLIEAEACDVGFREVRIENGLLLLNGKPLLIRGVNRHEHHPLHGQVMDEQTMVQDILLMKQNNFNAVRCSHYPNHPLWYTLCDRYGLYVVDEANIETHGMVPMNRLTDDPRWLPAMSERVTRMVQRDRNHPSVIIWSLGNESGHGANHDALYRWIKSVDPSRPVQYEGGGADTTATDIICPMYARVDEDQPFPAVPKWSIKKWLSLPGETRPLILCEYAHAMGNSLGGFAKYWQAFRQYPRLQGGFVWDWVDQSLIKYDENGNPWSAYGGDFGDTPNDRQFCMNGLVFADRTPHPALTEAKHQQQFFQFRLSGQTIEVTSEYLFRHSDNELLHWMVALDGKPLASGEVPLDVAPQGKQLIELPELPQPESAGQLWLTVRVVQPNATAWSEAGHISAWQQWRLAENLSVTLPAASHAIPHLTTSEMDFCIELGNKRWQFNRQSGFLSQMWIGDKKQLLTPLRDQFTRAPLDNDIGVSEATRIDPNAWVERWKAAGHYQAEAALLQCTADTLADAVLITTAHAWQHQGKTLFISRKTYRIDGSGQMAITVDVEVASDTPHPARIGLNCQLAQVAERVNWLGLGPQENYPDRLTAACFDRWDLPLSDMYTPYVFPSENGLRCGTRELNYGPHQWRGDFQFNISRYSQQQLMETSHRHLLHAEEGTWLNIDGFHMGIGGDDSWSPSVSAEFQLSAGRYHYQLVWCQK
Protocol: as §1
6. β-D-Galactosidase: 0.5 milligrams of solid protein (345 Units/milligram) were dissolved in 1 mL PIPES-NaOAc buffer solution.
as §2

[5] = test system: glycosidases; settings: Fleet et al., Tetrahedron Lett. 1985, 26, 3127; cited from earlier work
[6] = target: T1, α-Glucosidase (brewer yeast); settings: from Fleet et al., Tetrahedron Lett., 1985, 26:3127; cited from earlier work
[7] = target: T2, α-Mannosidase (jack bean); settings: from Fleet et al. 1985; cited from earlier work
[8] = target: β-Xylosidase (A. niger) (Aspergillus niger, UniProt O00089); settings: from Fleet et al. 1985; cited from earlier work
Chain of β-Xylosidase (A. niger) (O00089 27-804): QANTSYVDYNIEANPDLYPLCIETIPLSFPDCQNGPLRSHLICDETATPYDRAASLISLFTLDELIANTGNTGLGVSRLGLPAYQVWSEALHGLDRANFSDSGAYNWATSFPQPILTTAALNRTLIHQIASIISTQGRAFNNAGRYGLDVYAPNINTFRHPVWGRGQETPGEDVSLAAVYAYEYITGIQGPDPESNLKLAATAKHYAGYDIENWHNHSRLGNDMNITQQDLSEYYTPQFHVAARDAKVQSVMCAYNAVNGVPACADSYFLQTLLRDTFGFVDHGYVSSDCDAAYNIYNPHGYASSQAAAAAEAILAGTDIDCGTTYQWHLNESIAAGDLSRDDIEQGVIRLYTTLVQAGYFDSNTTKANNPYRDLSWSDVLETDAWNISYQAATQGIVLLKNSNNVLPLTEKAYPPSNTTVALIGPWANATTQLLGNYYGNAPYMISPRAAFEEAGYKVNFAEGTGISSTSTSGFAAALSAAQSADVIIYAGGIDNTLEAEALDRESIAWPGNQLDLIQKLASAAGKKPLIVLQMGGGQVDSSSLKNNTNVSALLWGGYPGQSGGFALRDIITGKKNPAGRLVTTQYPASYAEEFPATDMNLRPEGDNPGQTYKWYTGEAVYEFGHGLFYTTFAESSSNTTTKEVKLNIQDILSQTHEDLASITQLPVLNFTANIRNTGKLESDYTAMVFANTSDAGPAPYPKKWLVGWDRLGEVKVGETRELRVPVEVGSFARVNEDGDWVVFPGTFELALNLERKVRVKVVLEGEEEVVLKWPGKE

[9] = target: β-Glucosidase (almond); settings: from Fleet et al. 1985; cited from earlier work
[10] = target: T3, β-Galactosidase (E. coli); settings: from Fleet et al. 1985; cited from earlier work
[11] = target: T4, α-L-Fucosidase (Homo sapiens, UniProt P04066); experiment: α-L-Fucosidase inhibition (fuc-pNP hydrolysis); type: biochemical
T4 sequence (P04066 32-466): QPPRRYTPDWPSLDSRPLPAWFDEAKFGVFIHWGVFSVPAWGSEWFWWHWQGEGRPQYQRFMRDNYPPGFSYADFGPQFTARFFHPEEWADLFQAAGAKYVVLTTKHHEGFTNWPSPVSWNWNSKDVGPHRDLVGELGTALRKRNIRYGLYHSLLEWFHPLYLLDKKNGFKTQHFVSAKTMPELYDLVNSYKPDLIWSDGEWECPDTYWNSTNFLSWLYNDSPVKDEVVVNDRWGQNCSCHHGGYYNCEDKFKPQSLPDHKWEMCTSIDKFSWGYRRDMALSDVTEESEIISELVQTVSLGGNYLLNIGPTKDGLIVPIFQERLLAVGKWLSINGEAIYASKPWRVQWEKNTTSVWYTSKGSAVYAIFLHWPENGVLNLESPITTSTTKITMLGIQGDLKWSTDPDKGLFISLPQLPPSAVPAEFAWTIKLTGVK
Protocol: α-L-Fucosidase activity was measured by incubating the enzyme (0.005 Units) with fuc-pNP ([…]) in 0.4 ml of 50 mM acetate buffer, pH 5.5 for 20 minutes at 25° C. in the absence and presence of the azasugars of the present invention. The reaction was stopped by the addition of 0.8 ml of 2 mM glycine buffer, pH 10.5. The amount of formed p-nitrophenol was determined by optical density spectroscopy at a wavelength of 400 nm.

[12] = test system: AIDS virus gp160 envelope protein precursor; settings: Walker et al., Proc. Natl. Acad. Sci. 1987; cited from earlier work

Question: For `OC[C@@H]1N[C@H](CO)[C@@H](O)[C@@H]1O` [Compound 2, (2R,5S)-dihydroxymethyl-(3R,4R)-dihydroxypyrrolidine], which Ki [1] is on record?
Answer: The Ki was 19 µM.

Question: What about the Ki [2] of the same compound?
Answer: The Ki was 2.8 µM.

Question: What about the “inhibition of an α-mannosidase (in words)” value [3] of the same compound?
Answer: Its value is “significant inhibition”.

Question: And the Ki ([3]; pH 6.5)?
Answer: The Ki was 3100 µM.

Question: What about the “Ki Values, β-Galactosidase (E. coli)” value [4] of the same compound?
Answer: Its value is “No inhibition”.

Question: With `OC[C@H]1N[C@H](CO)[C@@H](O)[C@@H]1O` [Compound X, (2R,5R)-dihydroxymethyl-(3R,4R)-dihydroxypyrrolidine] as the compound, how does the “inhibition against glycosidases, including α- and β-glucosidases and β-xylosidase (in words)” value [5] read?
Answer: The value was “broad spectrum of inhibition”.

Question: What about the Ki [6] of the same compound?
Answer: Its Ki is 3.3 µM.

Question: And the “Ki Values, α-Mannosidase (jack bean)” value [7]?
Answer: Its value is “no inhibitory activity; also recorded: no inhibition”.

Question: What about the Ki [8] of the same compound?
Answer: The Ki was 250 µM.

Question: And the Ki [9]?
Answer: The Ki was 7.8 µM.

Question: And the “Ki Values, β-Galactosidase (E. coli)” value [10]?
Answer: Its value is “No inhibition”.

Question: Which results are given for `C[C@@H]1OC(O)[C@@H](O)[C@H](O)[C@@H]1O` (stereo partly drawn) [L-fucose]?
Answer: type of inhibition of fucosidase ([11]; versus fuc-pNP): competitive inhibitor; Ki ([11]; versus fuc-pNP, 50 mM acetate buffer pH 5.5, 25° C., read-out: Ki, α-L-Fucosidase inhibition): 300 µM

Question: For `OC1CN2CCC(O)C2C(O)C1O` (stereo not shown) [castanospermine, 1,6,7,8tetrahydroxyoctahydroindolizine], which “inhibition of processing of the AIDS virus gp160 envelope protein precursor (in words)” value [12] is on record?
Answer: The value was “inhibit the processing”.

Question: For `Oc1ccccc1` [phenol], which Ki [11] is on record?
Answer: Its Ki is 180 ± 20 µM.

Question: And the “type of inhibition of fucosidase” value ([11]; versus fuc-pNP)?
Answer: The value was “noncompetitive inhibitor”.
